{"source": "patent US20250188422A1", "about": "“INDUCED TOTIPOTENT POTENTIAL STEM CELLS, METHODS OF MAKING AND USING” (Peking University, priority 2022, published 2025)", "key": {"[1]": {"tested_on": "Zscan4-Emerald GFP and MERVL-tdTomato reporter expression in mouse EPS cells", "assay": "Screen with Zscan4-Emerald GFP and MERVL-tdTomato reporter EPS cells", "type": "cell-based", "settings": "for effect with CD1530 in inducing totipotent markers: combined with CD1530, EPS reporter cells, day 3", "method": "Cells were gently digested into single cells using 0.05% trypsin-EDTA. Suspensions were filtered through a 40 µm cell strainer. Then, the samples were analyzed on CytoFLEX (Beckman Coulter). Data analysis was performed using CytExpert software.\nTo identify small molecules that can induce totipotent features in mouse EPS cells, we used cell lines carrying a MERVL-TdTomato or a Zscan4-Emerald GFP reporter. As the positive control, Dux overexpression was performed in these reporter cells (FIG. 6a-c). N2B27 medium was used for screening and Wnt signaling agonist CHIR 99021 was also added for promoting cell proliferation. In the primary screen, we focused on identifying small molecules that can increase the percentage of Zscan4-Emerald GFP+ cells, and identified more than 50 primary hits. These candidates were further evaluated using MERVL-tdTomato reporter cells and small molecules that can also induce MERVL-tdTomato were selected out for further determining their optimal dosage in activating Zscan4-Emerald and MERVL-tdTomato expression without inducing significant toxicity. […] Therefore, CHIR 99021 was included in the chemical cocktail."}, "[2]": {"tested_on": "8-cell ICR diploid mouse embryos", "assay": "Chimeric assay of single-cell microinjection into 8-cell embryos", "type": "in vivo", "settings": "omission of CHIR 99021", "method": "Cells were digested by 0.05% trypsin-EDTA, and the digested cells were filtered through a 40 µm cell strainer, centrifuged at 1,200-1,500 rpm for 3 min at room temperature. Supernatant were removed and cells were suspended using culture medium with the addition of Y-27632 (10 μM; Tocris, 1254), and placed on the ice before injection. After being placed on ice, the digested cells should be injected in 1 h, otherwise, another batch of cells were digested for the remaining injections.\nSingle cells were microinjected into 8-cell ICR diploid mouse embryos. The injected embryos were cultured in the culture medium with Y-27632 (10 μM; Tocris, 1254) for the first 4 h. For the generation of chimeric blastocysts, the embryos were transferred into the KSOM medium (Merck, MR-106-D). For the generation of single-cell derived in vivo chimeric conceptuses, chimeric embryos were cultured into KSOM medium with Y-27632 (10 μM; Tocris, 1254) addition in a humidified incubator under 5% CO2 at 37° C. overnight. Injected embryos were transferred to uterine horns of 0.5 post coitum pseudo-pregnant females. Fetal tissues, yolk sacs, placentas were dissected from conceptuses at E7.5, E10.5, E13.5 or E17.5 developmental stages."}, "TPS cells": {"tested_on": "TPS cells", "assay": "Culture of TPS cells without CHIR 99021", "type": "cell-based, mouse", "method": "All cell lines were cultured under 20% 02 and 5% C02 at 37° C. Mouse TPS cells were cultured in 4S medium contained N2B27 basal medium [50% DMEM/F12 (Gibco, 11330-032), 50% Neurobasal (Gibco, 21103-049), 0.5% N2 supplement (Gibco, 17502-048), 1% B27 supplement (Gibco, 12587-010), 1% GlutaMAX (Gibco, 35050-061), 1% nonessential amino acids (Gibco, 11140-050)] which promoted cell proliferation, or 1640 basal medium [RPMI Medium 1640 basic (Gibco, 22400-089), 0.5% N2 supplement (Gibco, 17502-048), 1% B27 supplement (Gibco, 12587-010), 1% GlutaMAX (Gibco, 35050-061), 1% nonessential amino acids (Gibco, 11140-050)] which enhanced totipotent molecular features, supplemented with 5% knockout serum replacement (Gibco, 10828-028), 0.2% sodium pyruvate (Gibco, 11360-070), 0.14% sodium DL-lactate solution (Sigma, L7900) and 0.1% Chemically Defined Lipid Concentrate (Gibco, 11905-031), VPA (50 μM; Selleck, S3944), CHIR-99021 (3 μM; Selleck, S1263), EPZ004777 (1 μM, Selleck, S7353) and CD1530 ([…]-0.5 μM; Tocris, 2554). Mouse TPS cells were cultured on mitomycin C inactivated mouse embryonic fibroblast cells (feeders, 3*10^4 cells per cm^2). The culture medium was changed every day. TPS cells were passaged every three days with 0.05% trypsin-EDTA (Gibco, 25300-062) and seeded at a split ratio ranging from 1:3 to 1:10. To generate TPS cells, EPS cells or ES cells were dissociated and cultured on feeders in 4S medium for the first three passages, EPS cells or ES cells need to seed at a lower split ratio 1:3 to improve cell viability. After five passages, TPS cells were generated for further experiments.\nThe total RNAs were isolated using the Direct-zol RNA Kits (ZYMO Research, R2052). RNA was converted to cDNA using TransScript FirstStrand cDNA Synthesis SuperMix (TransGen Biotech, AT311). Quantitative PCR analysis was conducted using the KAPA SYBR FAST qPCR Kit (KAPA Biosystems, KK4601) with the Bio RAD CFX Connect Real-Time System. The data were analyzed using the delta-delta CT method.\nNext, we sought to analyze the role of CHIR 99021 in the induction and maintenance of TPS cells. […]"}, "[3]": {"tested_on": "EPS cells during TPS conversion", "assay": "Cell proliferation during conversion of EPS cells to TPS cells", "type": "cell-based, mouse", "settings": "CHIR 99021 omitted from the cocktail during the conversion", "method": "Mouse EPS cells and ES cells cultured in N2B27-LCDM medium or N2B27-2i/LIF medium for two days were used for TPS generation. Mouse EPS cells and ES cells were washed with DMEM/F12, then 0.05% trypsin-EDTA (Gibco, 25300-062) was added and incubated for 3 min, then DMEM (Gibco, 11965092) supplemented with 10% FBS (Hyclone, SH30070.03) was added. The cells were pipetted up and down several times into single cells. Cells were centrifuged and re-suspended in 4S medium contained N2B27 which promoted cell proliferation or RPMI Medium 1640 basic (Gibco, 22400-089) which enhanced totipotent molecular features supplemented with 5% knockout serum replacement (Gibco, 10828-028), 0.2% sodium pyruvate (Gibco, 11360-070), 0.14% sodium DL-lactate solution (Sigma, L7900) and 0.1% Chemically Defined Lipid Concentrate (Gibco, 11905-031), VPA (50 μM; Selleck, S3944), CHIR-99021, EPZ004777 (1 μM, Selleck, S7353) and CD1530 ([…]-0.5 μM; Tocris, 2554). […]\nTo identify small molecules that can induce totipotent features in mouse EPS cells, we used cell lines carrying a MERVL-TdTomato or a Zscan4-Emerald GFP reporter. […] These candidates were further evaluated using MERVL-tdTomato reporter cells and small molecules that can also induce MERVL-tdTomato were selected out for further determining their optimal dosage in activating Zscan4-Emerald and MERVL-tdTomato expression without inducing significant toxicity. […]"}}, "data": [{"smiles": "CC(C)N(CCCNC(=O)Nc1ccc(C(C)(C)C)cc1)C[C@H]1O[C@@H](n2ccc3c(N)ncnc32)[C@H](O)[C@@H]1O", "note": "[EPZ004777]", "values": [{"measurement": "effect with CD1530 in inducing totipotent markers", "setting": "[1]", "value": "synergistic effect"}]}, {"smiles": "CCCC(CCC)C(=O)O", "note": "[VPA]", "values": [{"measurement": "effect with CD1530 in inducing totipotent markers", "setting": "[1]", "value": "synergistic effect"}]}, {"smiles": "Cc1c[nH]c(-c2cnc(NCCNc3ccc(C#N)cn3)nc2-c2ccc(Cl)cc2Cl)n1", "note": "[CHIR 99021]", "values": [{"measurement": "in vivo chimeric of TPS cells", "setting": "[2]", "value": "greatly reduce"}, {"measurement": "requirement for the proliferation of TPS cells", "setting": "TPS cells; omission of CHIR 99021, after further passaging", "value": "not required"}, {"measurement": "expression of totipotent marker genes in TPS cells", "setting": "TPS cells; omission of CHIR 99021, after long-term culturing", "value": "not affected"}, {"measurement": "proliferation of TPS cells", "setting": "TPS cells; omission of CHIR 99021, first few passages (about 3-5 passages)", "value": "reduced proliferation"}, {"measurement": "cell proliferation", "setting": "[3]", "value": "greatly reduced"}]}, {"smiles": "O=C(O)c1ccc(-c2ccc3cc(O)c(C45CC6CC(CC(C6)C4)C5)cc3c2)cc1", "note": "[CD1530]", "values": [{"measurement": "inducing Zscan4-GFP and MERVL-tdTomato expression", "setting": "[1]; EPS reporter cells, N2B27 medium with CHIR 99021, after titration, compared with other screening hits", "value": "most effective"}]}]}
